Earlier results on 2 compounds are cited in US5912253A, “Rapamycin derivatives” (Novartis AG, priority 1993, dated 1999).

Data set [1] deals with macrophilin-12 (FK-506 binding protein or FKBP-12).
The conditions of data set [2]: in vivo.

Regarding `C=CC[C@@H]1/C=C(\C)C[C@H](C)C[C@H](OC)[C@H]2O[C@@](O)(C(=O)C(=O)N3CCCC[C@H]3C(=O)O[C@H](/C(C)=C/[C@@H]3CC[C@@H](O)[C@H](OC)C3)[C@H](C)[C@@H](O)CC1=O)[C@H](C)C[C@@H]2OC` [FK-506], in data set [1], the “binding in vivo to macrophilin-12” value was “known to bind in vivo to macrophilin-12”.
For the compound `CO[C@H]1C[C@@H]2CC[C@@H](C)[C@@](O)(O2)C(=O)C(=O)N2CCCC[C@H]2C(=O)O[C@H]([C@H](C)C[C@@H]2CC[C@@H](O)[C@H](OC)C2)CC(=O)[C@H](C)/C=C(\C)[C@@H](O)[C@@H](OC)C(=O)[C@H](C)C[C@H](C)/C=C/C=C/C=C/1C` [Rapamycin, rapamycin], the solubility result is reported as “highly insoluble”. Further, the bioavailability result in data set [2] was “very low and variable”. The “binding in vivo to macrophilin-12” value in data set [1] is “known to bind in vivo to macrophilin-12”.
